The record followed here is BindingDB's records for doi:10.1021/jm960441m (Upjohn, 1997).

pKi: −log10 of the molar value.

In the test the target is T1, Dimer of Gag-Pol polyprotein [489-587] (Human immunodeficiency virus 1, UniProt P12497).
T1 construct: 489-587
The test is described as follows: Protease Inhibition Assay. The source says: HIV-1 protease was purified and refolded from E. coli inclusion bodies. […] In the presence of HIV-l protease, the substrate is rapidly cleaved into two parts. The biotinylated amino terminal fragment binds to the avidin beads while the FITC-containing carboxy1 terminal fragment is removed through the membrane. […] The bound fluorescence is obtained by processing on an IDEXX Screen Machine. Determination of Ki values with this assay requires analysis under conditions in which substrate concentration resides substantially below Km and the inhibitor concentrations greatly exceeds the Ki value and the enzyme concentration.

`O=c1oc2c(c(O)c1C(c1cccc(NS(=O)(=O)c3ccc(F)cc3)c1)C1CC1)CCCCCC2` (stereo not given) showed a pKi of 8.51.

As for `O=c1oc2c(c(O)c1C(c1cccc(NS(=O)(=O)c3ccc(Cl)c(Cl)c3Cl)c1)C1CC1)CCCCCC2` (stereo not given) [2,3,4-trichloro-N-{3-[cyclopropyl({4-hydroxy-2-oxo-2H,5H,6H,7H,8H,9H,10H-cycloocta[b]pyran-3-yl})methyl]phenyl}benzene-1-sulfonamide], the pKi is 8.06. The same measure, in the same setting: the result for `O=c1oc2c(c(O)c1C(c1cccc(NS(=O)(=O)c3cccc(Cl)c3Cl)c1)C1CC1)CCCCCC2` (stereo not given) [2,3-dichloro-N-{3-[cyclopropyl({4-hydroxy-2-oxo-2H,5H,6H,7H,8H,9H,10H-cycloocta[b]pyran-3-yl})methyl]phenyl}benzene-1-sulfonamide] reads 8.12; that for `O=c1oc2c(c(O)c1C(c1cccc(NS(=O)(=O)c3ccc(Cl)cc3Cl)c1)C1CC1)CCCCCC2` (stereo not given) [2,4-dichloro-N-{3-[cyclopropyl({4-hydroxy-2-oxo-2H,5H,6H,7H,8H,9H,10H-cycloocta[b]pyran-3-yl})methyl]phenyl}benzene-1-sulfonamide], 8.21; that for `O=c1oc2c(c(O)c1C(c1cccc(NS(=O)(=O)c3cc(Cl)ccc3Cl)c1)C1CC1)CCCCCC2` (stereo not given) [2,5-dichloro-N-{3-[cyclopropyl({4-hydroxy-2-oxo-2H,5H,6H,7H,8H,9H,10H-cycloocta[b]pyran-3-yl})methyl]phenyl}benzene-1-sulfonamide], 7.13.

Compound `O=c1oc2c(c(O)c1C(c1cccc(NS(=O)(=O)c3c(Cl)cccc3Cl)c1)C1CC1)CCCCCC2` (stereo not given) [2,6-dichloro-N-{3-[cyclopropyl({4-hydroxy-2-oxo-2H,5H,6H,7H,8H,9H,10H-cycloocta[b]pyran-3-yl})methyl]phenyl}benzene-1-sulfonamide] had a pKi of less than 6.70.

Regarding `O=c1oc2c(c(O)c1C(c1cccc(NS(=O)(=O)c3ccccc3Cl)c1)C1CC1)CCCCCC2` (stereo not given) [2-chloro-N-{3-[cyclopropyl({4-hydroxy-2-oxo-2H,5H,6H,7H,8H,9H,10H-cycloocta[b]pyran-3-yl})methyl]phenyl}benzene-1-sulfonamide], the pKi (pH 5, 22 °C) is 8.03. Turning to `N#Cc1ccccc1S(=O)(=O)Nc1cccc(C(c2c(O)c3c(oc2=O)CCCCCC3)C2CC2)c1` (stereo not given) [2-cyano-N-{3-[cyclopropyl({4-hydroxy-2-oxo-2H,5H,6H,7H,8H,9H,10H-cycloocta[b]pyran-3-yl})methyl]phenyl}benzene-1-sulfonamide], the pKi (pH 5, 22 °C) is 8.13. The compound `O=c1oc2c(c(O)c1C(c1cccc(NS(=O)(=O)c3ccc(Cl)c(Cl)c3)c1)C1CC1)CCCCCC2` (stereo not given) [3,4-dichloro-N-{3-[cyclopropyl({4-hydroxy-2-oxo-2H,5H,6H,7H,8H,9H,10H-cycloocta[b]pyran-3-yl})methyl]phenyl}benzene-1-sulfonamide] gave a pKi of 8.39. On the same count and under the same terms, the result for `O=c1oc2c(c(O)c1C(c1cccc(NS(=O)(=O)c3cc(Cl)cc(Cl)c3)c1)C1CC1)CCCCCC2` (stereo not given) [3,5-dichloro-N-{3-[cyclopropyl({4-hydroxy-2-oxo-2H,5H,6H,7H,8H,9H,10H-cycloocta[b]pyran-3-yl})methyl]phenyl}benzene-1-sulfonamide] reads 8.16. In the case of `O=c1oc2c(c(O)c1C(c1cccc(NS(=O)(=O)c3cccc(Br)c3)c1)C1CC1)CCCCCC2` (stereo not given) [3-bromo-N-{3-[cyclopropyl({4-hydroxy-2-oxo-2H,5H,6H,7H,8H,9H,10H-cycloocta[b]pyran-3-yl})methyl]phenyl}benzene-1-sulfonamide], the pKi (pH 5, 22 °C) was 8.59. Still for that read-out and setting: with `O=c1oc2c(c(O)c1C(c1cccc(NS(=O)(=O)c3cccc(Cl)c3)c1)C1CC1)CCCCCC2` (stereo not given) [3-chloro-N-{3-[cyclopropyl({4-hydroxy-2-oxo-2H,5H,6H,7H,8H,9H,10H-cycloocta[b]pyran-3-yl})methyl]phenyl}benzene-1-sulfonamide] the figure was 8.57. Compound `[N-]=[N+]=Nc1ccc(S(=O)(=O)Nc2cccc(C(c3c(O)c4c(oc3=O)CCCCCC4)C3CC3)c2)cc1` (stereo not given) [4-azido-N-{3-[cyclopropyl({4-hydroxy-2-oxo-2H,5H,6H,7H,8H,9H,10H-cycloocta[b]pyran-3-yl})methyl]phenyl}benzene-1-sulfonamide] showed a negative logarithm of the Ki (pKi) of 8.59. Still for that read-out and setting: with `O=c1oc2c(c(O)c1C(c1cccc(NS(=O)(=O)c3ccc(Br)cc3)c1)C1CC1)CCCCCC2` (stereo not given) [4-bromo-N-{3-[cyclopropyl({4-hydroxy-2-oxo-2H,5H,6H,7H,8H,9H,10H-cycloocta[b]pyran-3-yl})methyl]phenyl}benzene-1-sulfonamide] the figure was 8.68. Compound `O=c1oc2c(c(O)c1C(c1cccc(NS(=O)(=O)c3ccc(Cl)cc3)c1)C1CC1)CCCCCC2` (stereo not given) [4-chloro-N-{3-[cyclopropyl({4-hydroxy-2-oxo-2H,5H,6H,7H,8H,9H,10H-cycloocta[b]pyran-3-yl})methyl]phenyl}benzene-1-sulfonamide] had a pKi of 8.60. As for `N#Cc1ccc(S(=O)(=O)Nc2cccc(C(c3c(O)c4c(oc3=O)CCCCCC4)C3CC3)c2)nc1` (stereo not given) [5-cyano-N-{3-[cyclopropyl({4-hydroxy-2-oxo-2H,5H,6H,7H,8H,9H,10H-cycloocta[b]pyran-3-yl})methyl]phenyl}pyridine-2-sulfonamide], the pKi was 9.00. For `O=c1oc2c(c(O)c1C(c1cccc(NS(=O)(=O)/C=C/c3ccccc3)c1)C1CC1)CCCCCC2` (stereo not given) [(E)-N-{3-[cyclopropyl({4-hydroxy-2-oxo-2H,5H,6H,7H,8H,9H,10H-cycloocta[b]pyran-3-yl})methyl]phenyl}-2-phenylethene-1-sulfonamide], the pKi (pH 5, 22 °C) was 8.52.

On to `O=c1oc2c(c(O)c1C(c1cccc(NS(=O)(=O)c3cccc4cccnc34)c1)C1CC1)CCCCCC2` (stereo not given) [N-[3-[Cyclopropyl(5,6,7,8,9,10-hexahydro-4-hydroxy-2-oxo-2H-cycloocta[b]pyran-3-yl)methyl]phenyl]-8-quinolinesulfonamide], for which the pKi was 8.72. As to `O=c1oc2c(c(O)c1C(c1cccc(NS(=O)(=O)Cc3ccccc3)c1)C1CC1)CCCCCC2` (stereo not given) [N-[3-[Cyclopropyl(5,6,7,8,9,10-hexahydro-4-hydroxy-2-oxo-2H-cycloocta[b]pyran-3-yl)methyl]phenyl]benzenemethanesulfonamide], the pKi (pH 5, 22 °C) was 7.89. Regarding `O=c1oc2c(c(O)c1C(c1cccc(NS(=O)(=O)c3cscn3)c1)C1CC1)CCCCCC2` (stereo not given) [N-{3-[cyclopropyl({4-hydroxy-2-oxo-2H,5H,6H,7H,8H,9H,10H-cycloocta[b]pyran-3-yl})methyl]phenyl}-1,3-thiazole-4-sulfonamide], the pKi is 8.80.

Consider `O=c1oc2c(c(O)c1C(c1cccc(NS(=O)(=O)c3ccc(F)cc3F)c1)C1CC1)CCCCCC2` (stereo not given) [N-{3-[cyclopropyl({4-hydroxy-2-oxo-2H,5H,6H,7H,8H,9H,10H-cycloocta[b]pyran-3-yl})methyl]phenyl}-2,4-difluorobenzene-1-sulfonamide], for which the pKi is 8.39.

As to `Cc1cccc(C)c1S(=O)(=O)Nc1cccc(C(c2c(O)c3c(oc2=O)CCCCCC3)C2CC2)c1` (stereo not given) [N-{3-[cyclopropyl({4-hydroxy-2-oxo-2H,5H,6H,7H,8H,9H,10H-cycloocta[b]pyran-3-yl})methyl]phenyl}-2,6-dimethylbenzene-1-sulfonamide], the pKi was less than 6.70. `O=c1oc2c(c(O)c1C(c1cccc(NS(=O)(=O)c3ccccc3C(F)(F)F)c1)C1CC1)CCCCCC2` (stereo not given) [N-{3-[cyclopropyl({4-hydroxy-2-oxo-2H,5H,6H,7H,8H,9H,10H-cycloocta[b]pyran-3-yl})methyl]phenyl}-2-(trifluoromethyl)benzene-1-sulfonamide]: the pKi (pH 5, 22 °C) was 7.68. Regarding `O=c1oc2c(c(O)c1C(c1cccc(NS(=O)(=O)c3ccccc3F)c1)C1CC1)CCCCCC2` (stereo not given) [N-{3-[cyclopropyl({4-hydroxy-2-oxo-2H,5H,6H,7H,8H,9H,10H-cycloocta[b]pyran-3-yl})methyl]phenyl}-2-fluorobenzene-1-sulfonamide], the pKi (pH 5, 22 °C) was 7.96. Against the preceding compound, the pKi is 0.28 log units higher.

In the case of `O=c1oc2c(c(O)c1C(c1cccc(NS(=O)(=O)CCc3ccccc3)c1)C1CC1)CCCCCC2` (stereo not given) [N-{3-[cyclopropyl({4-hydroxy-2-oxo-2H,5H,6H,7H,8H,9H,10H-cycloocta[b]pyran-3-yl})methyl]phenyl}-2-phenylethane-1-sulfonamide], for the setting “pH 5, 22 °C”, the pKi was 8.41.

`O=c1oc2c(c(O)c1C(c1cccc(NS(=O)(=O)c3ccc(C(F)(F)F)c(C(F)(F)F)c3)c1)C1CC1)CCCCCC2` (stereo not given) [N-{3-[cyclopropyl({4-hydroxy-2-oxo-2H,5H,6H,7H,8H,9H,10H-cycloocta[b]pyran-3-yl})methyl]phenyl}-3,4-bis(trifluoromethyl)benzene-1-sulfonamide] had a negative logarithm of the Ki (pKi) of 7.33. Compound `O=c1oc2c(c(O)c1C(c1cccc(NS(=O)(=O)c3cccc(C(F)(F)F)c3)c1)C1CC1)CCCCCC2` (stereo not given) [N-{3-[cyclopropyl({4-hydroxy-2-oxo-2H,5H,6H,7H,8H,9H,10H-cycloocta[b]pyran-3-yl})methyl]phenyl}-3-(trifluoromethyl)benzene-1-sulfonamide] had a pKi (pH 5, 22 °C) of 8.52. Same read-out and setting: the result for `O=c1oc2c(c(O)c1C(c1cccc(NS(=O)(=O)c3cccc([N+](=O)[O-])c3)c1)C1CC1)CCCCCC2` (stereo not given) [N-{3-[cyclopropyl({4-hydroxy-2-oxo-2H,5H,6H,7H,8H,9H,10H-cycloocta[b]pyran-3-yl})methyl]phenyl}-3-nitrobenzene-1-sulfonamide] reads 8.33.

Compound `O=c1oc2c(c(O)c1C(c1cccc(NS(=O)(=O)c3ccc(OC(F)(F)F)cc3)c1)C1CC1)CCCCCC2` (stereo not given) [N-{3-[cyclopropyl({4-hydroxy-2-oxo-2H,5H,6H,7H,8H,9H,10H-cycloocta[b]pyran-3-yl})methyl]phenyl}-4-(trifluoromethoxy)benzene-1-sulfonamide] had a pKi of 8.40. Same read-out and setting: the result for `O=c1oc2c(c(O)c1C(c1cccc(NS(=O)(=O)c3ccc(C(F)(F)F)cc3)c1)C1CC1)CCCCCC2` (stereo not given) [N-{3-[cyclopropyl({4-hydroxy-2-oxo-2H,5H,6H,7H,8H,9H,10H-cycloocta[b]pyran-3-yl})methyl]phenyl}-4-(trifluoromethyl)benzene-1-sulfonamide] reads 8.21.
